Data from US20250049748A1, “ANALOGS OF 4-BROMO-2,5-DIMETHOXYPHENETHYLAMINE” (Terran Biosciences Inc., priority 2021, published 2025).

Assay: Pharmacokinetic study in rats: plasma 2C-B after IV/PO 2C-B or PO 2C-B prodrugs
[1] = oral dosing of 2C-B prodrug, rat, time 0.500 h, individual animal
[2] = oral dosing of 2C-B prodrug, rat, time 0.500 h, mean
[3] = oral dosing of 2C-B prodrug, rat, time 1.00 h, individual animal
[4] = oral dosing of 2C-B prodrug, rat, time 1.00 h, mean
[5] = oral dosing of 2C-B prodrug, rat, time 2.00 h, individual animal
[6] = oral dosing of 2C-B prodrug, rat, time 2.00 h, mean
[7] = oral dosing of 2C-B prodrug, rat, time 4.00 h, individual animal
[8] = oral dosing of 2C-B prodrug, rat, time 4.00 h, mean
[9] = oral dosing of 2C-B prodrug, rat, time 7.00 h, individual animal
[10] = oral dosing of 2C-B prodrug, rat, time 7.00 h, mean
[11] = oral dosing of 2C-B prodrug, rat, time 24.0 h, individual animal
[12] = oral dosing of 2C-B prodrug, rat, time 24.0 h, mean
[13] = prodrug oral 10 mg/kg, male SD rats, time 0.500 h, individual animals
[14] = prodrug oral 10 mg/kg, male SD rats, time 0.500 h, mean
[15] = prodrug oral 10 mg/kg, male SD rats, time 1.00 h, individual animals
[16] = prodrug oral 10 mg/kg, male SD rats, time 1.00 h, mean
[17] = prodrug oral 10 mg/kg, male SD rats, time 2.00 h, individual animals
[18] = prodrug oral 10 mg/kg, male SD rats, time 2.00 h, mean
[19] = prodrug oral 10 mg/kg, male SD rats, time 4.00 h, individual animals
[20] = prodrug oral 10 mg/kg, male SD rats, time 4.00 h, mean
[21] = prodrug oral 10 mg/kg, male SD rats, time 7.00 h, individual animals
[22] = prodrug oral 10 mg/kg, male SD rats, time 7.00 h, mean
[23] = prodrug oral 10 mg/kg, male SD rats, time 24.0 h, individual animals
[24] = prodrug oral 10 mg/kg, male SD rats, time 24.0 h, mean

SMILES | Plasma Concentrations of metabolite 2C-B Following Oral Dosing [1] | Plasma Concentrations of metabolite 2C-B Following Oral Dosing [2] | Plasma Concentrations of metabolite 2C-B Following Oral Dosing [3] | Plasma Concentrations of metabolite 2C-B Following Oral Dosing [4] | Plasma Concentrations of metabolite 2C-B Following Oral Dosing [5] | Plasma Concentrations of metabolite 2C-B Following Oral Dosing [6] | Plasma Concentrations of metabolite 2C-B Following Oral Dosing [7] | Plasma Concentrations of metabolite 2C-B Following Oral Dosing [8] | Plasma Concentrations of metabolite 2C-B Following Oral Dosing [9] | Plasma Concentrations of metabolite 2C-B Following Oral Dosing [10] | Plasma Concentrations of metabolite 2C-B Following Oral Dosing [11] | Plasma Concentrations of metabolite 2C-B Following Oral Dosing [12] | Plasma Concentrations of metabolite 2C-B Following Oral Dosing [13] | Plasma Concentrations of metabolite 2C-B Following Oral Dosing [14] | Plasma Concentrations of metabolite 2C-B Following Oral Dosing [15] | Plasma Concentrations of metabolite 2C-B Following Oral Dosing [16] | Plasma Concentrations of metabolite 2C-B Following Oral Dosing [17] | Plasma Concentrations of metabolite 2C-B Following Oral Dosing [18] | Plasma Concentrations of metabolite 2C-B Following Oral Dosing [19] | Plasma Concentrations of metabolite 2C-B Following Oral Dosing [20] | further results
COc1cc(CCNC(=O)CN(C)C(=O)[C@H](Cc2ccccc2)NC(=O)OC(C)(C)C)c(OC)cc1Br [Example 10, tert-butyl (S)-(1-((2-((4-bromo-2,5-dimethoxyphenethyl)amino)-2-oxoethyl)(methyl)amino)-1-oxo-3-phenylpropan-2-yl)carbamate] | BLQ (BLQ: Below Lower Limit of Quanification (0.5 ng/mL)) | BLQ (BLQ: Below Lower Limit of Quanification (0.5 ng/mL)) | BLQ (BLQ: Below Lower Limit of Quanification (0.5 ng/mL)) | BLQ (BLQ: Below Lower Limit of Quanification (0.5 ng/mL)) | BLQ (BLQ: Below Lower Limit of Quanification (0.5 ng/mL)) | BLQ (BLQ: Below Lower Limit of Quanification (0.5 ng/mL)) | BLQ (BLQ: Below Lower Limit of Quanification (0.5 ng/mL)) | BLQ (BLQ: Below Lower Limit of Quanification (0.5 ng/mL)) | BLQ (BLQ: Below Lower Limit of Quanification (0.5 ng/mL)) | BLQ (BLQ: Below Lower Limit of Quanification (0.5 ng/mL)) | BLQ (BLQ: Below Lower Limit of Quanification (0.5 ng/mL)) | BLQ (BLQ: Below Lower Limit of Quanification (0.5 ng/mL)) | – | – | – | – | – | – | – | – | –
COc1cc(CCN(C(=O)OC(C)(C)C)C(=O)OC(C)(C)C)c(OC)cc1Br [Example 12, tert-butyl (4-bromo-2,5-dimethoxyphenethyl)(tert-butoxycarbonyl) carbamate] | – | – | – | – | – | – | – | – | – | – | – | – | BLQ (BLQ: Below Lower Limit of Quanification (0.5 ng/mL)) | BLQ (BLQ: Below Lower Limit of Quanification (0.5 ng/mL)) | BLQ (BLQ: Below Lower Limit of Quanification (0.5 ng/mL)) | BLQ (BLQ: Below Lower Limit of Quanification (0.5 ng/mL)) | BLQ (BLQ: Below Lower Limit of Quanification (0.5 ng/mL)) | BLQ (BLQ: Below Lower Limit of Quanification (0.5 ng/mL)) | BLQ (BLQ: Below Lower Limit of Quanification (0.5 ng/mL)) | BLQ (BLQ: Below Lower Limit of Quanification (0.5 ng/mL)) | Plasma Concentrations of metabolite 2C-B Following Oral Dosing [21]: BLQ (BLQ: Below Lower Limit of Quanification (0.5 ng/mL)); Plasma Concentrations of metabolite 2C-B Following Oral Dosing [22]: BLQ (BLQ: Below Lower Limit of Quanification (0.5 ng/mL)); Plasma Concentrations of metabolite 2C-B Following Oral Dosing [23]: BLQ (BLQ: Below Lower Limit of Quanification (0.5 ng/mL)); Plasma Concentrations of metabolite 2C-B Following Oral Dosing [24]: BLQ (BLQ: Below Lower Limit of Quanification (0.5 ng/mL))
COc1cc(CCN2C(=O)C(C)=C(C)C2=O)c(OC)cc1Br [Example 21-B, 1-(4-bromo-2,5-dimethoxyphenethyl)-3,4-dim ethyl-1H-pyrrole-2,5-dione] | – | – | – | – | – | – | – | – | – | – | – | – | BLQ (BLQ: Below Lower Limit of Quanification (0.5 ng/mL)) | BLQ (BLQ: Below Lower Limit of Quanification (0.5 ng/mL)) | BLQ (BLQ: Below Lower Limit of Quanification (0.5 ng/mL)) | BLQ (BLQ: Below Lower Limit of Quanification (0.5 ng/mL)) | BLQ (BLQ: Below Lower Limit of Quanification (0.5 ng/mL)) | BLQ (BLQ: Below Lower Limit of Quanification (0.5 ng/mL)) | BLQ (BLQ: Below Lower Limit of Quanification (0.5 ng/mL)) | BLQ (BLQ: Below Lower Limit of Quanification (0.5 ng/mL)) | Plasma Concentrations of metabolite 2C-B Following Oral Dosing [21]: BLQ (BLQ: Below Lower Limit of Quanification (0.5 ng/mL)); Plasma Concentrations of metabolite 2C-B Following Oral Dosing [22]: BLQ (BLQ: Below Lower Limit of Quanification (0.5 ng/mL)); Plasma Concentrations of metabolite 2C-B Following Oral Dosing [23]: BLQ (BLQ: Below Lower Limit of Quanification (0.5 ng/mL)); Plasma Concentrations of metabolite 2C-B Following Oral Dosing [24]: BLQ (BLQ: Below Lower Limit of Quanification (0.5 ng/mL))
COc1cc(CCN2C(=O)c3c(C)ccc(C)c3C2=O)c(OC)cc1Br [Example 34, 2-(4-bromo-2,5-dimethoxyphenethyl)-4,7-dimethylisoindoline-1,3-dione] | BLQ (BLQ: Below Lower Limit of Quanification (0.5 ng/mL)) | BLQ (BLQ: Below Lower Limit of Quanification (0.5 ng/mL)) | BLQ (BLQ: Below Lower Limit of Quanification (0.5 ng/mL)) | BLQ (BLQ: Below Lower Limit of Quanification (0.5 ng/mL)) | BLQ (BLQ: Below Lower Limit of Quanification (0.5 ng/mL)) | BLQ (BLQ: Below Lower Limit of Quanification (0.5 ng/mL)) | BLQ (BLQ: Below Lower Limit of Quanification (0.5 ng/mL)) | BLQ (BLQ: Below Lower Limit of Quanification (0.5 ng/mL)) | BLQ (BLQ: Below Lower Limit of Quanification (0.5 ng/mL)) | BLQ (BLQ: Below Lower Limit of Quanification (0.5 ng/mL)) | BLQ (BLQ: Below Lower Limit of Quanification (0.5 ng/mL)) | BLQ (BLQ: Below Lower Limit of Quanification (0.5 ng/mL)) | – | – | – | – | – | – | – | – | –
CCOC(=O)C1=C(C(=O)NCCc2cc(OC)c(Br)cc2OC)CCC1 [Example 36, Ethyl 2-((4-bromo-2,5-dimethoxyphenethyl)carbamoyl)cyclopent-1-ene-1-carboxylate] | BLQ (BLQ: Below Lower Limit of Quanification (0.5 ng/mL)) | BLQ (BLQ: Below Lower Limit of Quanification (0.5 ng/mL)) | BLQ (BLQ: Below Lower Limit of Quanification (0.5 ng/mL)) | BLQ (BLQ: Below Lower Limit of Quanification (0.5 ng/mL)) | BLQ (BLQ: Below Lower Limit of Quanification (0.5 ng/mL)) | BLQ (BLQ: Below Lower Limit of Quanification (0.5 ng/mL)) | BLQ (BLQ: Below Lower Limit of Quanification (0.5 ng/mL)) | BLQ (BLQ: Below Lower Limit of Quanification (0.5 ng/mL)) | BLQ (BLQ: Below Lower Limit of Quanification (0.5 ng/mL)) | BLQ (BLQ: Below Lower Limit of Quanification (0.5 ng/mL)) | BLQ (BLQ: Below Lower Limit of Quanification (0.5 ng/mL)) | BLQ (BLQ: Below Lower Limit of Quanification (0.5 ng/mL)) | – | – | – | – | – | – | – | – | –
